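All cell lines were grown in 96-well plates and treated with compound for 48 hours. Abbreviation: GI50, concentration required for 50% inhibition of growth.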 Active and inactive are the calls of the source. No stated cut-off is given here; in the data, active = GI50 up to about 1.1 µM and inactive = higher.
Columns and labels:
Assay in all cases: inhibition of tumour cell growth, NCI panel, 48 h
A549 = tested on: A549
CAKI-1 = tested on: CAKI-1
HCC 2998 = tested on: HCC 2998
HOP-62 = tested on: HOP-62
HOP-92 = tested on: HOP-92
HT-29 = tested on: HT-29
IGROV-1 = tested on: IGROV-1
MCF7 = tested on: MCF7
MOLT-4 = tested on: MOLT-4
NCI-H23 = tested on: NCI-H23
NCI-H460 = tested on: NCI-H460
OVCAR-3 = tested on: OVCAR-3
RPMI-8226 = tested on: RPMI-8226
SNB-19 = tested on: SNB-19
SNB-75 = tested on: SNB-75
SR = tested on: SR
U-251 = tested on: U-251
SK-MEL-2 = tested on: SK-MEL-2
A498 = tested on: A498

Compound | GI50 (A549) | GI50 (CAKI-1) | GI50 (HCC 2998) | GI50 (HOP-62) | GI50 (HOP-92) | GI50 (HT-29) | GI50 (IGROV-1) | GI50 (MCF7) | GI50 (MOLT-4) | GI50 (NCI-H23) | GI50 (NCI-H460) | GI50 (OVCAR-3) | GI50 (RPMI-8226) | GI50 (SNB-19) | GI50 (SNB-75) | GI50 (SR) | GI50 (U-251) | GI50 (SK-MEL-2) | GI50 (A498)
CC(CC(C)(C)[N+](C)(C)C)[N+](C)(C)C (configuration not stated) | > 100 µM (inactive) | > 100 µM (inactive) | > 100 µM (inactive) | > 100 µM (inactive) | > 100 µM (inactive) | > 100 µM (inactive) | > 100 µM (inactive) | > 100 µM (inactive) | > 100 µM (inactive) | > 100 µM (inactive) | > 100 µM (inactive) | > 100 µM (inactive) | > 100 µM (inactive) | > 100 µM (inactive) | 88.9 µM (inactive) | > 100 µM (inactive) | > 100 µM (inactive) |  | 
CCC(CO)Nc1nc2c(c(=O)n(C)c(=O)n2C)n1CCO (configuration not stated) | > 100 µM (inactive) |  | > 100 µM (inactive) |  | > 100 µM (inactive) | > 100 µM (inactive) | > 100 µM (inactive) |  | > 100 µM (inactive) | > 100 µM (inactive) |  | > 100 µM (inactive) | > 100 µM (inactive) | > 100 µM (inactive) | 48.9 µM (inactive) | > 100 µM (inactive) | > 100 µM (inactive) | > 100 µM (inactive) | 
CC(C#N)c1cn(S(=O)(=O)c2ccccc2)c2ccccc12 (configuration not stated) | 36.5 µM (inactive) | 34.6 µM (inactive) | 76.7 µM (inactive) | 37.5 µM (inactive) | 12.4 µM (inactive) | > 100 µM (inactive) | 78.5 µM (inactive) |  | 35.9 µM (inactive) | 39.9 µM (inactive) | 61.7 µM (inactive) | 53.1 µM (inactive) | 38.5 µM (inactive) | 42.9 µM (inactive) | 8.95 µM (inactive) | 30.8 µM (inactive) | > 100 µM (inactive) | 37.1 µM (inactive) | 
COc1cc2c(c3c1C=CCO3)C(=O)c1ccccc1C2=O | 38.5 µM (inactive) |  | 50.2 µM (inactive) | 41.3 µM (inactive) | > 100 µM (inactive) | 70.1 µM (inactive) | 26.8 µM (inactive) |  | 23.6 µM (inactive) | > 100 µM (inactive) | 39.8 µM (inactive) | 42.8 µM (inactive) | 32.8 µM (inactive) | 45.3 µM (inactive) | 51.1 µM (inactive) | 28 µM (inactive) | 30.8 µM (inactive) | > 100 µM (inactive) | 
CN(C)CCOC1(Cc2ccc(Cl)cc2Cl)CCC(C(C)(C)C)CC1 (configuration not stated) | 2.23 µM (inactive) | 15.9 µM (inactive) | 1.57 µM (inactive) | 1.84 µM (inactive) |  | 1.43 µM (inactive) | 1.83 µM (inactive) | 2.19 µM (inactive) | 1.85 µM (inactive) | 1.91 µM (inactive) | < 0.01 µM (active) | 2.42 µM (inactive) | 1.6 µM (inactive) | 2.22 µM (inactive) | 4.27 µM (inactive) | 0.0266 µM (active) | 1.88 µM (inactive) | 1.16 µM (inactive) | 1.83 µM (inactive)
Nc1ccc(C(=O)N/C(=C\C=C\c2ccco2)c2nc3c(O)nc(S)nc3[nH]2)cc1 | > 100 µM (inactive) | > 100 µM (inactive) | > 100 µM (inactive) |  | > 100 µM (inactive) | > 100 µM (inactive) | > 100 µM (inactive) |  | > 100 µM (inactive) | > 100 µM (inactive) |  | > 100 µM (inactive) |  | > 100 µM (inactive) |  | > 100 µM (inactive) | > 100 µM (inactive) | > 100 µM (inactive) | 
c1ccc2[nH]c3nc4ccccc4c-3cc2c1 | 0.245 µM (active) | 0.524 µM (active) | 0.757 µM (active) |  | 7.26 µM (inactive) | < 0.0303 µM (active) | 0.286 µM (active) | 0.304 µM (active) | 0.0942 µM (active) | 0.615 µM (active) | 0.128 µM (active) |  | 0.327 µM (active) | 0.785 µM (active) | 2.1 µM (inactive) | 0.0441 µM (active) | 0.454 µM (active) | 0.445 µM (active) | 3.33 µM (inactive)
O=C1NC2OC(CO)C(O)C(O)C2O1 (configuration not stated) | > 100 µM (inactive) | > 100 µM (inactive) | > 100 µM (inactive) | > 100 µM (inactive) | > 100 µM (inactive) | > 100 µM (inactive) | > 100 µM (inactive) |  | > 100 µM (inactive) | > 100 µM (inactive) | > 100 µM (inactive) | > 100 µM (inactive) |  | > 100 µM (inactive) | > 100 µM (inactive) | > 100 µM (inactive) | > 100 µM (inactive) | > 100 µM (inactive) | > 100 µM (inactive)
COc1cc(C=O)cc(O)c1O | > 100 µM (inactive) |  | > 100 µM (inactive) | > 100 µM (inactive) |  | 8.07 µM (inactive) | > 100 µM (inactive) |  | > 100 µM (inactive) | > 100 µM (inactive) | 76.6 µM (inactive) | > 100 µM (inactive) | > 100 µM (inactive) | > 100 µM (inactive) | > 100 µM (inactive) | 57.9 µM (inactive) | > 100 µM (inactive) |  | 
Cc1ccc(SSc2ccc(C)cc2C(=O)O)c(C(=O)O)c1 | > 100 µM (inactive) | > 100 µM (inactive) |  | > 100 µM (inactive) | > 100 µM (inactive) | > 100 µM (inactive) |  |  | > 100 µM (inactive) | > 100 µM (inactive) | > 100 µM (inactive) |  |  | > 100 µM (inactive) |  | > 100 µM (inactive) | > 100 µM (inactive) | > 100 µM (inactive) | > 100 µM (inactive)
CCN(CC)CC(C)C(=O)/C=C/c1ccc(C)cc1 (configuration not stated) | 3.77 µM (inactive) | 1.22 µM (inactive) | 3.13 µM (inactive) | 18.4 µM (inactive) | 2.32 µM (inactive) | 1.85 µM (inactive) | 2.2 µM (inactive) |  | 2.52 µM (inactive) | 6.31 µM (inactive) | 4.83 µM (inactive) | 4.2 µM (inactive) | 1.64 µM (inactive) | 16.7 µM (inactive) | 1.66 µM (inactive) | 2.48 µM (inactive) | 1.76 µM (inactive) |  | 4.74 µM (inactive)
Nc1nc(CC2(O)CCCCC2)cc(-c2ccccc2)n1 | 26.7 µM (inactive) | 51.2 µM (inactive) | 26.6 µM (inactive) | > 49.7 µM (inactive) | > 44.9 µM (inactive) | 16.6 µM (inactive) | 43 µM (inactive) |  | 16.7 µM (inactive) | > 43 µM (inactive) | 24.3 µM (inactive) | 25.6 µM (inactive) | 23.6 µM (inactive) | 31.2 µM (inactive) | > 47.9 µM (inactive) | 16.5 µM (inactive) | 39 µM (inactive) | 35.6 µM (inactive) | 33.5 µM (inactive)
CC(=O)Oc1c(C)n(CCCl)ccc1=O | > 100 µM (inactive) | > 100 µM (inactive) |  | > 100 µM (inactive) |  | > 100 µM (inactive) |  |  | > 100 µM (inactive) |  | 44.6 µM (inactive) | > 100 µM (inactive) | > 100 µM (inactive) | > 100 µM (inactive) | > 100 µM (inactive) | > 100 µM (inactive) | > 100 µM (inactive) | > 100 µM (inactive) | > 100 µM (inactive)
C[Si](C)(C)C1(Sc2ccccc2)SCCCS1 | 31.9 µM (inactive) | 54.6 µM (inactive) | 31.5 µM (inactive) | 29.7 µM (inactive) | 32.8 µM (inactive) | 38.5 µM (inactive) | 41.8 µM (inactive) |  | 15.1 µM (inactive) | 31.6 µM (inactive) | 52.8 µM (inactive) | 30.1 µM (inactive) | 24.6 µM (inactive) | 36.9 µM (inactive) | 37.8 µM (inactive) |  | 38.4 µM (inactive) | 58.9 µM (inactive) | 40.6 µM (inactive)
COc1ccc2ccc([Se]c3ccc4ccc(OC)cc4c3)cc2c1 | > 100 µM (inactive) | 38.7 µM (inactive) | > 100 µM (inactive) | > 100 µM (inactive) | > 100 µM (inactive) | 50.1 µM (inactive) | > 100 µM (inactive) |  | 63.2 µM (inactive) | > 100 µM (inactive) | 89.1 µM (inactive) | > 100 µM (inactive) | 49.9 µM (inactive) | 23.3 µM (inactive) | 26.6 µM (inactive) |  | 29.9 µM (inactive) | > 100 µM (inactive) | > 100 µM (inactive)
CC(=O)NC(CCCN(Cc1ccccc1)C(=O)N(C)N=O)C(=O)NCc1ccccc1 (configuration not stated) | > 100 µM (inactive) | > 100 µM (inactive) | > 100 µM (inactive) | > 100 µM (inactive) | > 100 µM (inactive) | > 100 µM (inactive) | > 100 µM (inactive) |  | 57.1 µM (inactive) | > 100 µM (inactive) | > 100 µM (inactive) | > 100 µM (inactive) | > 100 µM (inactive) | > 100 µM (inactive) | 27.4 µM (inactive) |  | > 100 µM (inactive) | > 100 µM (inactive) | > 100 µM (inactive)
O=C1COc2cc3c(cc2N1)SCCC(=O)N3 | > 100 µM (inactive) | > 100 µM (inactive) | > 100 µM (inactive) | > 100 µM (inactive) | > 100 µM (inactive) | > 100 µM (inactive) | > 100 µM (inactive) |  | > 100 µM (inactive) | > 100 µM (inactive) |  | > 100 µM (inactive) | > 100 µM (inactive) | > 100 µM (inactive) | > 100 µM (inactive) | > 100 µM (inactive) |  | > 100 µM (inactive) | > 100 µM (inactive)

— ChEMBL document CHEMBL1201862, “PubChem BioAssay data set” (2004)
